Values joined by “and” are separate entries in the source; they are usually repeats but may differ in a detail not shown here. Identical values can stand only once.
System: Healthy volunteers
Experiment: acute human side effect model (3-meal test), free oil
Assay type: in vivo
Conditions: orlistat alone (own control), individual volunteers
Excerpt: To test substances that will ameliorate the oil-related side effects associated with orlistat treatment, an acute human model was developed. Healthy volunteers received orlistat alone or in combination with the test substance during 3 consecutive meals (3-meal test). The modified orlistat formulations used in these 3-meal tests induce 70-80% fat excretion. A questionnaire was given to the volunteers to record side effects. The most severe oil related side effect is oily spotting (uncontrolled loss of oil). This side effect is difficult to quantify accurately in an acute model, however, in some volunteers a spontaneous separation of fat from formed stool was observed. This amount of fat, called free oil (mainly containing triglycerides) was isolated and weighted. The amount of free oil was used as a surrogate marker for the oily spotting as this is considered necessary for the appearance of oily spotting. Two clinical studies have been conducted to investigate the gastro-intestinal adverse event modifying effects of numerous substances. It appears that volunteers show an individual sensitivity to the orlistat-related gastro-intestinal side effects. […] For a given volunteer a substance is considered as positive when the free oil quantity is reduced by at least 50% compared to the control value (orlistat alone). […]

CCCCCCCCCCC[C@@H](C[C@@H]1OC(=O)[C@H]1CCCCCC)OC(=O)[C@H](CC(C)C)NC=O [orlistat]
Free oil production (Test 1): 11 g/week and 9 g/week | Free oil production (Test 2): 17 g/week and 40 g/week and 39 g/week
